In article PMC12586182 (Frontiers in Oncology, 2025):
Like-named read-outs stand apart in the source and are kept apart here.

Tests used:
[1] = molecular target: T1, FAK (Homo sapiens, UniProt Q05397); assay: Kinase panel profiling at 1 µmol/L (mobility shift assay, Carna); type: biochemical; conditions: 1 µmol/L of BTK inhibitor
T1 construct: purchased Carna Biosciences

[2] = molecular target: T2, p38α (Homo sapiens, UniProt Q16539); assay: as above; type: biochemical; conditions: 1 µmol/L of BTK inhibitor
T2 construct: purchased Carna Biosciences
T2 sequence (Q16539 whole entry): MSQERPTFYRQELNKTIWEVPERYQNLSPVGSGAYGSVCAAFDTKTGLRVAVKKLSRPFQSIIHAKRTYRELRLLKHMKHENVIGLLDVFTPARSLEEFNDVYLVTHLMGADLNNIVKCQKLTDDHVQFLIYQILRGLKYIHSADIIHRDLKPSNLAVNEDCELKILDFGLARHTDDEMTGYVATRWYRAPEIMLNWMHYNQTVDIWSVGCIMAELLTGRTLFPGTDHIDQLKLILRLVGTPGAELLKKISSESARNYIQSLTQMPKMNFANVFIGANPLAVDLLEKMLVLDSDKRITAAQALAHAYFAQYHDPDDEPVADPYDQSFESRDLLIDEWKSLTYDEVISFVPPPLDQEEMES

[3] = molecular target: T3, BLK (Homo sapiens, UniProt P51451); assay: as above; type: biochemical; conditions: 1 µmol/L of BTK inhibitor
T3 construct: purchased Carna Biosciences
T3 sequence (P51451 whole entry): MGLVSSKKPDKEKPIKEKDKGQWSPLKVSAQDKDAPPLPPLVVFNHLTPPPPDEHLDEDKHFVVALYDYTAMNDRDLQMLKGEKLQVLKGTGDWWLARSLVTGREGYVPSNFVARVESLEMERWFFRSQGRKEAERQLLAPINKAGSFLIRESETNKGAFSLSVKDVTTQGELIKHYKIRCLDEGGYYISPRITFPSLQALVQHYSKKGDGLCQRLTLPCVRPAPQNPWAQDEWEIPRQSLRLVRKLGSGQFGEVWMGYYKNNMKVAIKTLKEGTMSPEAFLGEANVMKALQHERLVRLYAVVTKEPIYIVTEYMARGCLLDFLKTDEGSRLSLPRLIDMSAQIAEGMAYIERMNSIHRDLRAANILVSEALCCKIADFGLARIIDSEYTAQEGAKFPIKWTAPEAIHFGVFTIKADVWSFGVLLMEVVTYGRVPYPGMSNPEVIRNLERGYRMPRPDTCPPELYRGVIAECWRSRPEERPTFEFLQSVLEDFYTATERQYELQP

[4] = test system: REC-1; assay: Cell viability assay (ATPlite); type: cell-based, human; conditions: REC-1 cell line; for IC50: 72 hours incubation
Method: (§1) Intracellular ATP content was used as an indirect readout of cell number using the ATPlite 1Step bioluminescence assay (Revvity, Groningen, the Netherlands). Cells were seeded in 384-well plates at an optimized density to ensure unrestricted growth and maximal signal at the end of the experiment. After 24 hours of incubation, the starting cell number was determined by adding ATPlite to each well of a control plate and recording luminescence on an Envision multimode reader (Revvity, Waltham, MA, USA) ([4]). […] Vehicle-treated controls were included to determine maximal cell proliferation. […] After incubation for an additional 72 hours, the ATP content was measured in each well using ATPlite. The luminescent signal in inhibitor-treated wells was normalized to vehicle-treated control wells to determine the percentage viability at each concentration. Cell doublings were determined by relating the cell number of vehicle-treated controls to the starting cell number for each cell line. […] The quality of the complete assay was determined by a parallel test with doxorubicin on two cell lines. IC50 values were calculated by fitting a four-parameter logistic model to the percentage viability values using IDBS XLfit5 (IDBS, Guildford, United Kingdom). All curves were visually inspected and submitted to an F-test as implemented in IDBS XLfit5. […] When this dose range was too high in a certain cell line to allow for a reliable determination of the IC50, a new dilution series was prepared using a diluted stock solution and was used to retest the compound on the cell line.

[5] = test system: SU-DHL-6; assay: Cell viability assay (ATPlite); type: cell-based, human; conditions: SU-DHL-6 cell line; for IC50: 72 hours incubation
Method: as §1

[6] = molecular target: T4, TIE2 (Homo sapiens, UniProt Q02763); assay: Kinase panel profiling at 1 µmol/L (mobility shift assay, Carna); type: biochemical; conditions: 1 µmol/L of BTK inhibitor
T4 construct: purchased Carna Biosciences
T4 sequence (Q02763 23-1124): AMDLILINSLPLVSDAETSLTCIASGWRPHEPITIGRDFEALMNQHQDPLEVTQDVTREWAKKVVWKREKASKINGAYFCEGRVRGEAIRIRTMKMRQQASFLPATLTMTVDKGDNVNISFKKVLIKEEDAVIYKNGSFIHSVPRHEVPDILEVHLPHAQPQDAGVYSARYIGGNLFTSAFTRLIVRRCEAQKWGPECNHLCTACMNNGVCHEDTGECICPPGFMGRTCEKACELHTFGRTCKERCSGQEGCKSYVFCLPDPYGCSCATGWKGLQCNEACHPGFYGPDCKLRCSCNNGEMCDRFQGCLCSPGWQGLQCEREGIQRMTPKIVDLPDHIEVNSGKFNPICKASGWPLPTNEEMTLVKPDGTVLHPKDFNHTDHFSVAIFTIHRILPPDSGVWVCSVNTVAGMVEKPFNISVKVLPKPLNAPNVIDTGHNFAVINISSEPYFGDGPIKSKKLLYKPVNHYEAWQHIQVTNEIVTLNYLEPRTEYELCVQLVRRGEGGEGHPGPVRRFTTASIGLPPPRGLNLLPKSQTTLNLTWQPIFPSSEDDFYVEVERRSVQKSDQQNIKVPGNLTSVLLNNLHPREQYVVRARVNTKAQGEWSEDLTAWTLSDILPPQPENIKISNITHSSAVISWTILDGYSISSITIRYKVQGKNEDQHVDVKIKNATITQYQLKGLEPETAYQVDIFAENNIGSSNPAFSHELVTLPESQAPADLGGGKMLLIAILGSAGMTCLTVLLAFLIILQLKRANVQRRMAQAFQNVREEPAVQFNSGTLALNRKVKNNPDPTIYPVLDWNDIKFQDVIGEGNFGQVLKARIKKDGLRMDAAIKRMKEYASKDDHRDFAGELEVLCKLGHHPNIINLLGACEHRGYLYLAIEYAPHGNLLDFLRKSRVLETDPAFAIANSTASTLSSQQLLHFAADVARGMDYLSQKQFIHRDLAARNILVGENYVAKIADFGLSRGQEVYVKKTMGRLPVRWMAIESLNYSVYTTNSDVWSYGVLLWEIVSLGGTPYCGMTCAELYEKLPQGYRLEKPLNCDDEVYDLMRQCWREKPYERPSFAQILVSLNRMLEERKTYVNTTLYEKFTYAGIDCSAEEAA

[7] = molecular target: T5, IKKα (Homo sapiens, UniProt O15111); assay: as above; type: biochemical; conditions: 1 µmol/L of BTK inhibitor
T5 construct: purchased Carna Biosciences
T5 sequence (O15111 1-745): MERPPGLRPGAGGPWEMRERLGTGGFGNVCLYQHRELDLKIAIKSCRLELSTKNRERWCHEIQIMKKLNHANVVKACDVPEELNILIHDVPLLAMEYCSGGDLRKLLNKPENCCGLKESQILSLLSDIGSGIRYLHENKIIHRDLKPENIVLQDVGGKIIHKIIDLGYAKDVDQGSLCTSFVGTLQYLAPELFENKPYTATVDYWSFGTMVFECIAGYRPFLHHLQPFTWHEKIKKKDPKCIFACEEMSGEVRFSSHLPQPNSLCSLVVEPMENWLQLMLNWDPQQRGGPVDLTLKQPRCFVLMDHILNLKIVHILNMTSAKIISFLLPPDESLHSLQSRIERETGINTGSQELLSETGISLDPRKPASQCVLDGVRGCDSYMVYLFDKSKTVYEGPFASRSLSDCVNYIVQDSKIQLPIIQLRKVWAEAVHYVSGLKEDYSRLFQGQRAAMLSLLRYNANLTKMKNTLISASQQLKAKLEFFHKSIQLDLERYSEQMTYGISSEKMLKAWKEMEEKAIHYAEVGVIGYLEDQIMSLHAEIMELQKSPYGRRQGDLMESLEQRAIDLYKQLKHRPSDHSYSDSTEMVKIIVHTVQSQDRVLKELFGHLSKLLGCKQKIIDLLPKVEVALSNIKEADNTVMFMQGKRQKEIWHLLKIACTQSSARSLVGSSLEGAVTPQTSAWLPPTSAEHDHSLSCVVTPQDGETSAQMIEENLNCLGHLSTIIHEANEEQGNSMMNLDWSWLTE

[8] = molecular target: T6, PKCθ (Homo sapiens, UniProt Q04759); assay: as above; type: biochemical; conditions: 1 µmol/L of BTK inhibitor
T6 construct: purchased Carna Biosciences
T6 sequence (Q04759 whole entry): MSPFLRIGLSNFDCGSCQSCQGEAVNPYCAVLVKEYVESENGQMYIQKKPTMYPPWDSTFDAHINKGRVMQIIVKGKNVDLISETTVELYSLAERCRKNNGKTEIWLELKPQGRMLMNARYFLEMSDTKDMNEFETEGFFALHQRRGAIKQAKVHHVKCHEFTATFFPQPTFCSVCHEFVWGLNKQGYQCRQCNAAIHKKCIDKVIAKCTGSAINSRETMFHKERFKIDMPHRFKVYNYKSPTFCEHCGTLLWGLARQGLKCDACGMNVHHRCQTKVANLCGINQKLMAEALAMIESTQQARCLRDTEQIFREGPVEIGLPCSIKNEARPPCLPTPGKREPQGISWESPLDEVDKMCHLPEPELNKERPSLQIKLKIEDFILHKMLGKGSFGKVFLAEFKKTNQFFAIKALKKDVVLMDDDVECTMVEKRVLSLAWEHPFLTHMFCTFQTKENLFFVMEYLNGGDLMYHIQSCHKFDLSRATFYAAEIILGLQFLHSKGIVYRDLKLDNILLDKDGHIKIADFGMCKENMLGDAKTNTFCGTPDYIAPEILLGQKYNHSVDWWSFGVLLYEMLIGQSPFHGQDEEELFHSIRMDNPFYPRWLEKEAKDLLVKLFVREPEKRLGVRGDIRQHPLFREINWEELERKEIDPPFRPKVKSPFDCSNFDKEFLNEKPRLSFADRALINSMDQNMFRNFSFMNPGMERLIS

[9] = molecular target: T7, EPHA3 (Homo sapiens, UniProt P29320); assay: as above; type: biochemical; conditions: 1 µmol/L of BTK inhibitor
T7 construct: purchased Carna Biosciences
T7 sequence (P29320 21-983): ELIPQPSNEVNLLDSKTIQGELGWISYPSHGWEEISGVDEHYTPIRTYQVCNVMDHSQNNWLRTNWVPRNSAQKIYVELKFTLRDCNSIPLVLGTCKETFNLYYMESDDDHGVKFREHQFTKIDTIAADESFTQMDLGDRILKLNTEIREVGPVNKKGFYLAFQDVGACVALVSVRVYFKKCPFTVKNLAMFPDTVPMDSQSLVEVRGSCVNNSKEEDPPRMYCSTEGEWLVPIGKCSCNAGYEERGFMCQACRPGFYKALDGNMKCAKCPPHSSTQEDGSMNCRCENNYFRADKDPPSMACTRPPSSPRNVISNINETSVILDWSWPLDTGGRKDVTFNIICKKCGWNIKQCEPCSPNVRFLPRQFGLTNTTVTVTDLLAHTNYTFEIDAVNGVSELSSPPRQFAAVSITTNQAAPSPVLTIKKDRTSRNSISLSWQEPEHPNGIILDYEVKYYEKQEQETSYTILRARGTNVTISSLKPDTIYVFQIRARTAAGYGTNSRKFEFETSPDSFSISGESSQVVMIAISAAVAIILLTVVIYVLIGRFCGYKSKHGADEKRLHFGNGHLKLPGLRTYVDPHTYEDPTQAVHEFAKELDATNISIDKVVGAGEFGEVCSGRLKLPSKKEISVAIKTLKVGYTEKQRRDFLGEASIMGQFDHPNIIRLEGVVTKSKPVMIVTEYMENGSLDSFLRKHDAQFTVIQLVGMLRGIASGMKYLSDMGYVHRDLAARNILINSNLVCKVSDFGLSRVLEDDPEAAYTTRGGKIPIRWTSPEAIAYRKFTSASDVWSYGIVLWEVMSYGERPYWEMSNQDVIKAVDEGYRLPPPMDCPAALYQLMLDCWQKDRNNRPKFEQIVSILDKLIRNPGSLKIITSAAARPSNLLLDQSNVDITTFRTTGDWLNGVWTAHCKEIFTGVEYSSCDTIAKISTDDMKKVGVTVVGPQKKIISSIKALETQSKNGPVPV

[10] = molecular target: T8, PKCβ2 (Homo sapiens, UniProt P05771); assay: as above; type: biochemical; conditions: 1 µmol/L of BTK inhibitor
T8 construct: purchased Carna Biosciences
T8 sequence (P05771 1-673 isoform P05771-2): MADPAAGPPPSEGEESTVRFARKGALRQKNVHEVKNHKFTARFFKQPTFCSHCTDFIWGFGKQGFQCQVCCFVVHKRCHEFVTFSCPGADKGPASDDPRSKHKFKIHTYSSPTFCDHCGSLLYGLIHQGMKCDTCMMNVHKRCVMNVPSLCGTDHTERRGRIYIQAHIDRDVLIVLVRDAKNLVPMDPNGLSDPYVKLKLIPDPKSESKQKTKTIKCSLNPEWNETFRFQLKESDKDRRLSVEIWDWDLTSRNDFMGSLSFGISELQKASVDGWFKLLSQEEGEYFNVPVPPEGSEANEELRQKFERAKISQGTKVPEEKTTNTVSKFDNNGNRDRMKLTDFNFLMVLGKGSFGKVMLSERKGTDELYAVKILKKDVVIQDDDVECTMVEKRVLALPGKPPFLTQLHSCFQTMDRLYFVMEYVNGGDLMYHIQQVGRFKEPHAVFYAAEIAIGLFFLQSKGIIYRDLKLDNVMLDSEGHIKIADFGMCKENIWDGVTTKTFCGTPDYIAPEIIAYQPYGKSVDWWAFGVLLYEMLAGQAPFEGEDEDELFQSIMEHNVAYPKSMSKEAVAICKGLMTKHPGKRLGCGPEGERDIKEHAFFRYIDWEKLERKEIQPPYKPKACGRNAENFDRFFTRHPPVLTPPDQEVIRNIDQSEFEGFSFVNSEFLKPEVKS

[11] = molecular target: T9, PLK3 (Homo sapiens, UniProt Q9H4B4); assay: as above; type: biochemical; conditions: 1 µmol/L of BTK inhibitor
T9 construct: purchased Carna Biosciences
T9 sequence (Q9H4B4 whole entry): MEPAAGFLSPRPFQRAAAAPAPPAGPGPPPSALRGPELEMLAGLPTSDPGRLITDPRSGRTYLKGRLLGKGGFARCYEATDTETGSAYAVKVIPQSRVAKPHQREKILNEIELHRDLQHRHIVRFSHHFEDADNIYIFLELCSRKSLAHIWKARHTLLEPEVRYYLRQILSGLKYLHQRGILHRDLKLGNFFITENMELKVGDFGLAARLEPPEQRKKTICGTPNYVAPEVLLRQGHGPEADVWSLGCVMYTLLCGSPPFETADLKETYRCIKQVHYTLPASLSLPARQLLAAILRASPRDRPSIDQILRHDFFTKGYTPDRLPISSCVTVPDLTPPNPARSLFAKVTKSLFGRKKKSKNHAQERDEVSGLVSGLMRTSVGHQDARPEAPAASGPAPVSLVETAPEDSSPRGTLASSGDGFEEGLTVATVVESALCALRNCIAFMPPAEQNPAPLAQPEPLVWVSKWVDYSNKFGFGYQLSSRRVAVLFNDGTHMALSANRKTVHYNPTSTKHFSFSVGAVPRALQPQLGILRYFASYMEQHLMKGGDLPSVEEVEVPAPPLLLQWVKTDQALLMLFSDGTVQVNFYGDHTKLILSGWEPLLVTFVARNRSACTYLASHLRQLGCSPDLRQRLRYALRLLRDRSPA

[12] = molecular target: T10, CHK2 (Homo sapiens, UniProt O96017); assay: as above; type: biochemical; conditions: 1 µmol/L of BTK inhibitor
T10 construct: purchased Carna Biosciences
T10 sequence (O96017 whole entry): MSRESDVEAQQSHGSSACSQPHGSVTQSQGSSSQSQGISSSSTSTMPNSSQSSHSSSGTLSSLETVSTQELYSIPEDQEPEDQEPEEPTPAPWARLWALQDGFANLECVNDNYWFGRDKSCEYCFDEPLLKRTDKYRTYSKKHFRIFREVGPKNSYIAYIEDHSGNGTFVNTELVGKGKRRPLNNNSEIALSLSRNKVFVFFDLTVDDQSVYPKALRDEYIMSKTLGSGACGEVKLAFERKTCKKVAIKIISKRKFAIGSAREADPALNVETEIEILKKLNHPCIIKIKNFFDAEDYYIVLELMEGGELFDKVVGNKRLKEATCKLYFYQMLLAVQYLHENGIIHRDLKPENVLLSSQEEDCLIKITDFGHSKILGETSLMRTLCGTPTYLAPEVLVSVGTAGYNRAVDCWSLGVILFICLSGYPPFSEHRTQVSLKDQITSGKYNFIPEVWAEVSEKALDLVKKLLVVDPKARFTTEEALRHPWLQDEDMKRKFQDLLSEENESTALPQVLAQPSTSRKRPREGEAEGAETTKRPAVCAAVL

[13] = Homo sapiens, Rec1, read-out: IC50

| Structure (SMILES) | Percentage inhibition of kinase enzyme activity [1] [%] | Percentage inhibition of kinase enzyme activity [2] [%] | Percentage inhibition of kinase enzyme activity [3] [%] | IC50 [4, 13] [nM] | IC50 ([5]; Homo sapiens, read-out: IC50) [nM] | Percentage inhibition of kinase enzyme activity [6] [%] | Percentage inhibition of kinase enzyme activity [7] [%] | Percentage inhibition of kinase enzyme activity [8] [%] | Percentage inhibition of kinase enzyme activity [9] [%] | Percentage inhibition of kinase enzyme activity [10] [%] | Percentage inhibition of kinase enzyme activity [11] [%] | Percentage inhibition of kinase enzyme activity [12] [%] | IC50 ([4]; Homo sapiens, Rec1, 72 h) [nM] | IC50 [4] [nM] | IC50 ([5]; Homo sapiens, SU-DHL-6, 72 h) [nM] | IC50 [5] [nM] | IC50 fold change of nemtabrutinib with the inhibitor [4] | IC50 fold change of nemtabrutinib with the inhibitor [5] |
| --- | --- | --- | --- | --- | --- | --- | --- | --- | --- | --- | --- | --- | --- | --- | --- | --- | --- | --- |
| CC#CC(=O)N1CCC[C@H]1c1nc(-c2ccc(C(=O)Nc3ccccn3)cc2)c2c(N)nccn12 [acalabrutinib] | -1.39 | -0.75 | 8.43 | 21 | 3.1 | -5.36 | -1.45 | -8.13 | -2.07 | -12.04 | 1.76 | -5.77 | – | – | – | – | – | – |
| C=CC(=O)N1CCC[C@@H](n2nc(-c3ccc(Oc4ccccc4)cc3)c3c(N)ncnc32)C1 [ibrutinib] | 5.04 | -2.71 | 101.19 | 0.51 | 12 | 29.04 | 4.34 | -1.13 | 3.80 | 1.78 | 1.53 | 14.14 | – | – | – | – | – | – |
| O=C(c1ccc(Oc2ccccc2)cc1Cl)c1c[nH]c2ncnc(N[C@@H]3CC[C@@H](CO)OC3)c12 [nemtabrutinib] | 100.03 | 2.09 | 102.70 | – | – | 99.74 | 1.80 | -0.21 | 50.57 | -1.79 | 5.13 | 49.89 | 2000 | 2040 | 600 | 577 | – | – |
| COc1ccc(F)cc1C(=O)NCc1ccc(-c2nn([C@@H](C)C(F)(F)F)c(N)c2C(N)=O)cc1 [pirtobrutinib] | 0.91 | -2.18 | 30.87 | 38 | 13 | -3.49 | -16.22 | 4.94 | -5.46 | -8.67 | -1.13 | 7.28 | – | – | – | – | 53 | 43 |
| C=CC(=O)N1CCC([C@@H]2CCNc3c(C(N)=O)c(-c4ccc(Oc5ccccc5)cc4)nn32)CC1 [zanubrutinib] | 0.0146 | – | 98.41 | – | – | – | -9.91 | – | -0.20 | -1.66 | – | – | 3.1 | – | 3.8 | – | – | – |
